Assays:
Type in all cases: cell-based
[1] = system: Hut78 T-cell Leukemia cell; assay: CCK-8 proliferation inhibition, Hut78; settings: for inhibition at 10 µM / inhibition at 100 µM: Homo sapiens, read-out: Hut-78 (inhibition %); for inhibition at 10 µM: HuT78, 10 μM; for inhibition at 100 µM: HuT78, 100 μM
Experimental: (§1) Detecting the inhibition rate of the compound concentrations of 100 μM and 10 μM to Hut78 T-cell Leukemia cell, Jurkat E6-1 human T-cell lymphoma, PANC-1 human pancreatic cancer cells, A549 human lung cancer cells, K562 human chronic myeloid leukemia cells, Hep3B2.1-7 human liver cancer cells, MDA-MB-435s human breast cancer cells, Colo320 human rectal cancer cells and PC-3 human prostate cancer using CCK-8 method.

[2] = system: PANC-1 human pancreatic cancer cells; assay: CCK-8 proliferation inhibition, PANC-1; settings: for inhibition at 10 µM / inhibition at 100 µM: Homo sapiens; for inhibition at 10 µM: PANC-1, 10 μM; for inhibition at 100 µM: PANC-1, 100 μM
Experimental: as §1

[3] = system: Jurkat E6-1 human T-cell lymphoma; assay: CCK-8 proliferation inhibition, Jurkat E6-1; settings: for inhibition at 10 µM / inhibition at 100 µM: Homo sapiens; for inhibition at 10 µM: Jurkat E6.1, 10 μM; for inhibition at 100 µM: Jurkat E6.1, 100 μM
Experimental: as §1

[4] = system: K562 human chronic myeloid leukemia cells; assay: CCK-8 proliferation inhibition, K562; settings: for inhibition at 10 µM / inhibition at 100 µM: Homo sapiens; for inhibition at 10 µM: K562, 10 μM; for inhibition at 100 µM: K562, 100 μM
Experimental: as §1

[5] = system: A549 human lung cancer cells; assay: CCK-8 proliferation inhibition, A549; settings: CCK-8 method; for inhibition at 10 µM / inhibition at 100 µM: Homo sapiens, A549
Experimental: as §1

[6] = system: MDA-MB-435s human breast cancer cells; assay: CCK-8 proliferation inhibition, MDA-MB-435s; settings: CCK-8 method; for inhibition at 10 µM / inhibition at 100 µM: Homo sapiens, MDA-MB-435S
Experimental: as §1

[7] = system: Hep3B2.1-7 human liver cancer cells; assay: CCK-8 proliferation inhibition, Hep3B2.1-7; settings: CCK-8 method; for inhibition at 10 µM / inhibition at 100 µM: Homo sapiens, Hep3B
Experimental: as §1

[8] = system: PC-3 human prostate cancer; assay: CCK-8 proliferation inhibition, PC-3; settings: CCK-8 method; for inhibition at 10 µM / inhibition at 100 µM: Homo sapiens
Experimental: as §1

[9] = system: Colo320 human rectal cancer cells; assay: CCK-8 proliferation inhibition, Colo320; settings: CCK-8 method; for inhibition at 10 µM / inhibition at 100 µM: Homo sapiens, COLO 320
Experimental: as §1

| Compound | inhibition at 10 µM [1] [%] | inhibition at 100 µM [1] [%] | inhibition at 10 µM [2] [%] | inhibition at 100 µM [2] [%] | inhibition at 10 µM [3] [%] | inhibition at 100 µM [3] [%] | inhibition at 10 µM [4] [%] | inhibition at 100 µM [4] [%] | inhibition at 10 µM ([5]; compound concentration 10 μM) [%] | inhibition at 100 µM ([5]; compound concentration 100 μM) [%] | inhibition at 10 µM ([6]; compound concentration 10 μM) [%] | inhibition at 100 µM ([6]; compound concentration 100 μM) [%] | inhibition at 10 µM ([7]; compound concentration 10 μM) [%] | inhibition at 100 µM ([7]; compound concentration 100 μM) [%] | inhibition at 10 µM ([8]; compound concentration 10 μM) [%] | inhibition at 100 µM ([8]; compound concentration 100 μM) [%] | inhibition at 10 µM ([9]; compound concentration 10 μM) [%] | inhibition at 100 µM ([9]; compound concentration 100 μM) [%] | also measured |
| --- | --- | --- | --- | --- | --- | --- | --- | --- | --- | --- | --- | --- | --- | --- | --- | --- | --- | --- | --- |
| Nc1ncccc1NC(=O)c1ccc(CNC(=O)OCc2ccc(F)cc2)cc1 [V-19, N-(2-amino-3-pyridyl)-4-[(4-fluorobenzyloxyacyl)aminomethyl]benzamide] | 19.8 | 54 | 26 | 36.8 | 19.1 | 77.8 | 25 | 65.1 | 18.3 | 57.1 | 27.5 | 89.1 | 21.5 | 69.8 | -1.9 | 48.5 | 0.9 | 34.3 |  |
| Nc1ncccc1NC(=O)c1ccc(CNC(=O)/C=C/c2ccccc2)cc1 [V-25, N-(2-amino-3-pyridyl)-4-(cinnamoylaminomethyl)benzamide] | 23.4 | 53.5 | 12 | 25.1 | 20.3 | 80.2 | 33.6 | 72.4 | 29.8 | 67.9 | 32.5 | 73.3 | 18.4 | 45.7 | 41.8 | 67.1 | 4.9 | 28.9 |  |
| COc1cc(CCC(=O)NCc2ccc(C(=O)Nc3ccnc(N)c3)cc2)cc(OC)c1OC [V-55, N-(2-amino-4-pyridyl)-4-[3-(3,4,5-methoxyphenyl)propionylaminomethyl]benzamide] |  |  |  |  |  |  |  |  |  |  |  |  |  |  |  |  |  |  | Hut-78 (inhibition %) ([1]; 10 μM): −5.5%; Hut-78 (inhibition %) ([1]; 100 μM): −2.4%; PANC-1 (inhibition %) ([2]; 10 μM): −7.5%; PANC-1 (inhibition %) ([2]; 100 μM): −6.1%; Jurkat E6-1 (inhibition %) ([3]; 10 μM): 10.6%; Jurkat E6-1 (inhibition %) ([3]; 100 μM): 0.6%; K562 (inhibition %) ([4]; 10 μM): −12.8%; K562 (inhibition %) ([4]; 100 μM): −17.4%; A549 (inhibition %) ([5]; compound concentration 10 μM): −16.5%; A549 (inhibition %) ([5]; compound concentration 100 μM): −15.3%; 435s(inhibition %) ([6]; compound concentration 10 μM): 6.5%; 435s(inhibition %) ([6]; compound concentration 100 μM): 4.9%; Hep3B (inhibition %) ([7]; compound concentration 10 μM): 21.7%; Hep3B (inhibition %) ([7]; compound concentration 100 μM): 7.2%; PC-3 (inhibition %) ([8]; compound concentration 10 μM): 13.3%; PC-3 (inhibition %) ([8]; compound concentration 100 μM): 10.9%; Colo320 (inhibition %) ([9]; compound concentration 10 μM): −11.2%; Colo320 (inhibition %) ([9]; compound concentration 100 μM): −2.8% |
| Nc1ncccc1NC(=O)c1ccc(CNC(=O)/C=C/c2ccc(F)cc2)cc1 [V-40, N-(2-amino-3-pyridyl)-4-[(4-fluorocinnamoyl)aminomethyl]benzamide] | 29.2 | 69.3 | 4.4 | 9.5 | 31.6 | 87.6 | 45 | 75 | 2.8 | 47.7 | 28.5 | 76.3 | -5 | 51.7 | 6.3 | 38.8 | 10 | 32.3 |  |
| Cc1ccc(CCC(=O)NCc2ccc(C(=O)Nc3ccncc3N)cc2)cc1 [V-51] | -0.5 | 35.2 | 1.4 | -6.1 | 14.8 | 42.4 | -2.4 | 53.5 | -8.9 | -3.2 | 14.1 | 31.3 | 24.9 | 26.9 | 21.4 | 45 | -5.7 | 7.9 |  |
